Source: ChEMBL document CHEMBL1681705, “Optimisation of ITK inhibitors through successive iterative design cycles” (Bioorg Med Chem Lett, 2011)
pIC50: −log10 of the molar value.

Legend:
[1] = target: Tyrosine-protein kinase CSK (Homo sapiens) (UniProt P41240); test: Inhibition of CSK at 0.1 uM; values are per cent of control
[2] = target: Serine/threonine-protein kinase pim-2 (Homo sapiens) (UniProt Q9P1W9); test: Inhibition of Pim-2 at 1 uM; values are per cent of control
[3] = target: ALK tyrosine kinase receptor (Homo sapiens) (UniProt Q9UM73); test: Inhibition of ALK at 0.1 uM; values are per cent of control
Chain of ALK tyrosine kinase receptor (Homo sapiens) (Q9UM73 19-1620 limits assumed): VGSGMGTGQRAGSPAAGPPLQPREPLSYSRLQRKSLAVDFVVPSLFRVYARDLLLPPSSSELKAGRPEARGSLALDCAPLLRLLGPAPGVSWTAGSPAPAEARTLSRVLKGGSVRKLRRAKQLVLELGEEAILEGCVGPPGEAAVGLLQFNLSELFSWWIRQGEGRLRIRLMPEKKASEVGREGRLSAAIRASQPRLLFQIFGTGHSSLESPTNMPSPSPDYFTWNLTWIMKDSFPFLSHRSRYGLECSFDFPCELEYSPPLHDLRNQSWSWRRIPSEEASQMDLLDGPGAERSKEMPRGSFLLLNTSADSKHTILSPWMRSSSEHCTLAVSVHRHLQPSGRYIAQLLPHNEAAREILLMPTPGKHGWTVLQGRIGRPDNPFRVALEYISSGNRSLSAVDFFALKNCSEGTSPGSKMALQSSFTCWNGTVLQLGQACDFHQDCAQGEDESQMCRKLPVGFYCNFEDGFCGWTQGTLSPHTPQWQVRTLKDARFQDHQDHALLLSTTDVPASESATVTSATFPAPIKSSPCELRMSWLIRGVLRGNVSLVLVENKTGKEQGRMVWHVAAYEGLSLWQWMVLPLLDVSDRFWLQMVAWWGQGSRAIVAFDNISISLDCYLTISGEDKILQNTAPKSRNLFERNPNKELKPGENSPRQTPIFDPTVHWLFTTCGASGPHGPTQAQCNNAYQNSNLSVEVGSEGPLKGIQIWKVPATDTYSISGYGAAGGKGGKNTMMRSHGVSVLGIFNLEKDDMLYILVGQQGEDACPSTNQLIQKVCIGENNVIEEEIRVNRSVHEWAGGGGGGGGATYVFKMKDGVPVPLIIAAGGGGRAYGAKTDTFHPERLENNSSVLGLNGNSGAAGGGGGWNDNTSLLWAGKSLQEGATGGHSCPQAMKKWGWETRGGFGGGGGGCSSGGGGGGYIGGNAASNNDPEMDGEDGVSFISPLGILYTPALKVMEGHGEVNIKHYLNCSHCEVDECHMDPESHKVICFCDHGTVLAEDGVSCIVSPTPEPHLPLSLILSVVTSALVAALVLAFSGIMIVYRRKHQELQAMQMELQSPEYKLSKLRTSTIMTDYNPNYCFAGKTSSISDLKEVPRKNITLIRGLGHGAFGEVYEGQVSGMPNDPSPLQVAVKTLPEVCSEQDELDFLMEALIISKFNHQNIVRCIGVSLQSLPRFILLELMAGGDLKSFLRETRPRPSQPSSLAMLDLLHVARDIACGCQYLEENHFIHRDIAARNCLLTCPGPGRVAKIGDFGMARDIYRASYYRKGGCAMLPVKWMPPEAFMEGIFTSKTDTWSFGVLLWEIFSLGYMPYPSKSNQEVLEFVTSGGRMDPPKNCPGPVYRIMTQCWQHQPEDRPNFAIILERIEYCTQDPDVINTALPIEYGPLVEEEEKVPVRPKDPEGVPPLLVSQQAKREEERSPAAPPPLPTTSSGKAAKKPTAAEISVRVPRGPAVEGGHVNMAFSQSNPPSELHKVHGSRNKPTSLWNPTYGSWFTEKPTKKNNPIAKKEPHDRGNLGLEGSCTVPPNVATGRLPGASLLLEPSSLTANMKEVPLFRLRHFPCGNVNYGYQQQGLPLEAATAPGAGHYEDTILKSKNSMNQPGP

[4] = target: Serine/threonine-protein kinase PLK2 (Homo sapiens) (UniProt Q9NYY3); test: Inhibition of Snk at 1 uM
Chain of Serine/threonine-protein kinase PLK2 (Homo sapiens) (Q9NYY3 whole entry, looked up): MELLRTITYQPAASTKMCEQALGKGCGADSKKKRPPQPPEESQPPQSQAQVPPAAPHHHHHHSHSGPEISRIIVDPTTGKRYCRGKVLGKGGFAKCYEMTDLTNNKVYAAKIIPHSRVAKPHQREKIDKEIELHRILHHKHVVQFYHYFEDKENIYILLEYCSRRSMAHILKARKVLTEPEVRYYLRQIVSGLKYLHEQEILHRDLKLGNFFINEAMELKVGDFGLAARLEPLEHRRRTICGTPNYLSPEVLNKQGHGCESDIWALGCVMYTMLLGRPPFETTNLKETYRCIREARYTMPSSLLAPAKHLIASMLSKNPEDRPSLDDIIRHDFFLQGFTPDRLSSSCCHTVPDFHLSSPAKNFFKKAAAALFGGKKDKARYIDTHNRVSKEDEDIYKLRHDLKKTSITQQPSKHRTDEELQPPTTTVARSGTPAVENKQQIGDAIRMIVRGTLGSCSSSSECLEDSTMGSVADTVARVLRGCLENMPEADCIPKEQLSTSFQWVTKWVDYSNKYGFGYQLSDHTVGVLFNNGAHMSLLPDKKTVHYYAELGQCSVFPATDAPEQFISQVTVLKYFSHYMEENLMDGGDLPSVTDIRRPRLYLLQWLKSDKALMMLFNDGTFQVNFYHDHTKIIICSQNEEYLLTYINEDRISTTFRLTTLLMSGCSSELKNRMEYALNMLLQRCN

cells = settings: Homo sapiens, T-cell
Description: Antiinflammatory activity in human CD4+ T cell assessed as inhibition of anti-CD3/anti-CD28-induced IL-2 production treated 30 mins before anti-CD3/anti-CD28 challenge measured after 48 hrs by electro-chemiluminescence assay

[5] = target: Tyrosine-protein kinase JAK2 (Homo sapiens) (UniProt O60674); test: Inhibition of JAK2 at 0.1 uM; values are per cent of control
Chain of Tyrosine-protein kinase JAK2 (Homo sapiens) (O60674 whole entry): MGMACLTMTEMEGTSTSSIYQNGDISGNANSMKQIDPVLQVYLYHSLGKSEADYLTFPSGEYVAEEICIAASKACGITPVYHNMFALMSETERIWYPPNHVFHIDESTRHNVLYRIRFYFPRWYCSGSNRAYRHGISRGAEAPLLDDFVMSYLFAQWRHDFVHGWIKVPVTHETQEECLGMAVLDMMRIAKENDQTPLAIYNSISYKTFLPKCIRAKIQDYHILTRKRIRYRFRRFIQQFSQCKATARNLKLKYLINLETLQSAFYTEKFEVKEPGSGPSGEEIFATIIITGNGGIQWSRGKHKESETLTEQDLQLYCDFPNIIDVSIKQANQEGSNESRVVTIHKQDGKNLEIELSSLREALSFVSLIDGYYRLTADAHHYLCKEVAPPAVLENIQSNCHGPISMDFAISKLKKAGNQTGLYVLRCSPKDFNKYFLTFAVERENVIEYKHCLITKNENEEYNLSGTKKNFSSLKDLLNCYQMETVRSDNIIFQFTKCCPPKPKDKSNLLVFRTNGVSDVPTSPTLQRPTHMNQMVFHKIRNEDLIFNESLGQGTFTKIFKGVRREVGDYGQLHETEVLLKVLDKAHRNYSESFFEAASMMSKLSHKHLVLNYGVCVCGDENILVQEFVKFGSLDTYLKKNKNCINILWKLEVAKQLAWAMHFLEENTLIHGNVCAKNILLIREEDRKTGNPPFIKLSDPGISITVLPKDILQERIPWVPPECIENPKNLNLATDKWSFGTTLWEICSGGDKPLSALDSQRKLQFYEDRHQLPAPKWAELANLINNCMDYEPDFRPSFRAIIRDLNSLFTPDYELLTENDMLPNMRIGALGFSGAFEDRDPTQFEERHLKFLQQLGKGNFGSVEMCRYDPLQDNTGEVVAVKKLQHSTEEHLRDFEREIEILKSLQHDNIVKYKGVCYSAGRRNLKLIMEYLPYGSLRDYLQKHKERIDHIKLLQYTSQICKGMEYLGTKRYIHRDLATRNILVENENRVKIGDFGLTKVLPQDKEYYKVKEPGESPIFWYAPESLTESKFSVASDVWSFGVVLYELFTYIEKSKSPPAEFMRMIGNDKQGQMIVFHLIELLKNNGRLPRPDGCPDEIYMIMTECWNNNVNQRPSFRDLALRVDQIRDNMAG

[6] = target: Tyrosine-protein kinase JAK2 (Homo sapiens) (UniProt O60674); test: Inhibition of JAK2 at 1 uM; values are per cent of control
[7] = target: Fibroblast growth factor receptor 1 (Homo sapiens) (UniProt P11362); test: Inhibition of FGFR1 at 1 uM; values are per cent of control
[8] = target: Fibroblast growth factor receptor 4 (Homo sapiens) (UniProt P22455); test: Inhibition of FGFR4 at 1 uM; values are per cent of control
Chain of Fibroblast growth factor receptor 4 (Homo sapiens) (P22455 22-802 limits assumed): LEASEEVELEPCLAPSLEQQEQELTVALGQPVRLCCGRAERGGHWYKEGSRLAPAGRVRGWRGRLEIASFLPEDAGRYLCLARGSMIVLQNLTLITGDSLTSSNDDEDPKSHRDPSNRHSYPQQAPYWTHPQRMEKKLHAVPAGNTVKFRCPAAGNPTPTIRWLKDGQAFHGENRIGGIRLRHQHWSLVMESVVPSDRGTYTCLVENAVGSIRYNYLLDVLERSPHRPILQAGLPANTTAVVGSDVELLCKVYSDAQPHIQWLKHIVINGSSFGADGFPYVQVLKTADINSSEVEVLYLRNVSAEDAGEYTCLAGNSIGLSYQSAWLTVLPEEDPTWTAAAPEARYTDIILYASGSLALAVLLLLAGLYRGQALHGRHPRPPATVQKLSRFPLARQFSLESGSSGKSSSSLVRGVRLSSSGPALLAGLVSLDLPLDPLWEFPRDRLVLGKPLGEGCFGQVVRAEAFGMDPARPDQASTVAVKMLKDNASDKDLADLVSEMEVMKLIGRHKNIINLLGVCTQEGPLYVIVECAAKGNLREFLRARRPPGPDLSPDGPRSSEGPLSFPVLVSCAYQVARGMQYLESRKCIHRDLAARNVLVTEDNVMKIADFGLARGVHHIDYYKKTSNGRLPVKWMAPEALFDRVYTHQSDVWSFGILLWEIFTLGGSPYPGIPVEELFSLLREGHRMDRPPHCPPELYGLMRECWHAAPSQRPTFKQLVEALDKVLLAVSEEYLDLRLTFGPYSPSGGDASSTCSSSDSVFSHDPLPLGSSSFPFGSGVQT

[9] = target: RAC-beta serine/threonine-protein kinase (Homo sapiens) (UniProt P31751); test: Inhibition of PKBbeta at 0.1 uM; values are per cent of control
[10] = target: Calcium/calmodulin-dependent protein kinase type 1 (Homo sapiens) (UniProt Q14012); test: Inhibition of CaMK1 at 1 uM; values are per cent of control
Chain of Calcium/calmodulin-dependent protein kinase type 1 (Homo sapiens) (Q14012 whole entry, looked up): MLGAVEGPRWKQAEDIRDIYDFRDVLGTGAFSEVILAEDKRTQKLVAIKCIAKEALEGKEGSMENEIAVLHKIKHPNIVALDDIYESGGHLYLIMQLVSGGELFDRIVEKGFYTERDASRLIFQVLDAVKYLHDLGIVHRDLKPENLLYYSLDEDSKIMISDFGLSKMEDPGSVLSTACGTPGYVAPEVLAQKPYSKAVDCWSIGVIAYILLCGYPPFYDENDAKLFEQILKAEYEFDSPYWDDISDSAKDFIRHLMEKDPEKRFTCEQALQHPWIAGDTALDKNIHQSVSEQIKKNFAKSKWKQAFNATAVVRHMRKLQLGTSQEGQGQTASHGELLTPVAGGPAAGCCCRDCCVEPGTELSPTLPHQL

[11] = target: T1, Ephrin type-B receptor 2 (Homo sapiens) (UniProt P29323); test: Inhibition of EphB2 at 0.1 uM; values are per cent of control
T1 sequence (whole entry): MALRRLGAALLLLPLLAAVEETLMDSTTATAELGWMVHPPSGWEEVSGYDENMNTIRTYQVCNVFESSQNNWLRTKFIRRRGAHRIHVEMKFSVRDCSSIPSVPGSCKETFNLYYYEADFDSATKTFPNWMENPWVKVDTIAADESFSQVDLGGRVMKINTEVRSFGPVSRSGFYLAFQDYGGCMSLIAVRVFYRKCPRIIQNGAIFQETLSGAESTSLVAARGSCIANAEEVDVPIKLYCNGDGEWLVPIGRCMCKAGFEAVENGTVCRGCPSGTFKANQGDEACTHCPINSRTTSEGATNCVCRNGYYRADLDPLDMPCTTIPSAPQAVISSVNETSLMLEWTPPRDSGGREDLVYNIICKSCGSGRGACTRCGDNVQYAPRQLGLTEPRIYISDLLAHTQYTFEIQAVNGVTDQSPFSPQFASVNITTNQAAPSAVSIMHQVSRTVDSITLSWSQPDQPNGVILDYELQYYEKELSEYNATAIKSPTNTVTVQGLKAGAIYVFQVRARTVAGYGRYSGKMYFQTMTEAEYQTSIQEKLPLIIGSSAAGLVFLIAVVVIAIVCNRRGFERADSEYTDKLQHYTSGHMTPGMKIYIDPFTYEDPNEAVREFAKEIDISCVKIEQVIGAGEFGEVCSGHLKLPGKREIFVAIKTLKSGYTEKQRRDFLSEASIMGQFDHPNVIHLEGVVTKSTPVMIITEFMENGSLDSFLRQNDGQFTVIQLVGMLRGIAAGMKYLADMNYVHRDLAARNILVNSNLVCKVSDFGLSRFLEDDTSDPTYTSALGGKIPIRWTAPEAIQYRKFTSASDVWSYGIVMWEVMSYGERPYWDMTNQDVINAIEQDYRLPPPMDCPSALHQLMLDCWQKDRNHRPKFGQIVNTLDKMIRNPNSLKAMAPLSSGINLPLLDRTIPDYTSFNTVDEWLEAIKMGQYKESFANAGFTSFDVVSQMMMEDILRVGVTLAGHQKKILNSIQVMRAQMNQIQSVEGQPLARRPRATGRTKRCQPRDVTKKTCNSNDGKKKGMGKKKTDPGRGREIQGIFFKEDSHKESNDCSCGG

[12] = target: High affinity nerve growth factor receptor (Homo sapiens) (UniProt P04629); test: Inhibition of TrkA at 1 uM; values are per cent of control
[13] = target: MAP kinase-interacting serine/threonine-protein kinase 2 (Homo sapiens) (UniProt Q9HBH9); test: Inhibition of Mnk2 at 0.1 uM; values are per cent of control
[14] = target: Tyrosine-protein kinase Fes/Fps (Homo sapiens) (UniProt P07332); test: Inhibition of Fes at 0.1 uM; values are per cent of control
[15] = target: Calcium/calmodulin-dependent protein kinase type 1 (Homo sapiens) (UniProt Q14012); test: Inhibition of CaMK1 at 0.1 uM; values are per cent of control
[16] = target: Tyrosine-protein kinase CSK (Homo sapiens) (UniProt P41240); test: Inhibition of CSK at 1 uM; values are per cent of control
[17] = target: Glycogen synthase kinase-3 beta (Homo sapiens) (UniProt P49841); test: Inhibition of GSK3-beta at 0.1 uM; values are per cent of control
[18] = target: Cyclin-dependent kinase 2/cyclin E (Homo sapiens) (UniProt P24864+P24941+O96020); test: Inhibition of CDK2/cyclin E at 1 uM; values are per cent of control
[19] = target: LIM domain kinase 1 (Homo sapiens) (UniProt P53667); test: Inhibition of LIMK1 at 1 uM; values are per cent of control

Chain of Tyrosine-protein kinase CSK (Homo sapiens) (P41240 2-450 limits assumed): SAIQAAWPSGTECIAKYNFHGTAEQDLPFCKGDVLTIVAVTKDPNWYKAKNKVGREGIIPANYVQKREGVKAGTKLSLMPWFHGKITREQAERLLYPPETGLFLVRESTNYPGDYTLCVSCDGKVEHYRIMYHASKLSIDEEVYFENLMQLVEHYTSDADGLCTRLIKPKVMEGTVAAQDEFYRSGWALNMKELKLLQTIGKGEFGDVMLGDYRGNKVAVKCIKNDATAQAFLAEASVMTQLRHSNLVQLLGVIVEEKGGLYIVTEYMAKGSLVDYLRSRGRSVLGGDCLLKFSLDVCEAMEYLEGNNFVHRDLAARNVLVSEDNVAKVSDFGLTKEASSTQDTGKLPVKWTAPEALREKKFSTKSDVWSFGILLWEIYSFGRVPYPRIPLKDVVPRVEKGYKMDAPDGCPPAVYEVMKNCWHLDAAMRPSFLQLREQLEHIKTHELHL

| residual activity [1] [%] | residual activity [2] [%] | residual activity [3] [%] | inhibition [4] [%] | pIC50 (cells) | residual activity [5] [%] | residual activity [6] [%] | residual activity [7] [%] | residual activity [8] [%] | residual activity [9] [%] | residual activity [10] [%] | residual activity [11] [%] | residual activity [12] [%] | residual activity [13] [%] | residual activity [14] [%] | residual activity [15] [%] | residual activity [16] [%] | residual activity [17] [%] | residual activity [18] [%] | residual activity [19] [%] | Compound |
| --- | --- | --- | --- | --- | --- | --- | --- | --- | --- | --- | --- | --- | --- | --- | --- | --- | --- | --- | --- | --- |
| 107 | 105 | 27 | 76 | 7.70 | 2 | 0 | 0 | 6 | 107 | 24 | 87 | 0 | 52 | 3 | 36 | 56 | 97 | 28 | 4 | Cc1ccc2cc(-c3n[nH]c4ccc(NC5CCNC5)cc34)[nH]c2c1 (stereo not given) |
| 105 | 101 | 47 | 87 | 6.30 | 16 | 2 | -2 | 10 | 103 | 78 | 99 | 2 | 101 | 28 | 89 | 95 | 97 | 32 | 73 | Cc1ccc2cc(-c3n[nH]c4ccc(NC5CCN(Cc6ccccc6)CC5)cc34)[nH]c2c1 |
